Experimental data from patent US8673910B2, “Proteasome inhibitors for selectively inducing apoptosis in cancer cells” (H. Lee Moffitt Cancer Center and Research Institute, priority 2008, dated 2014).
Values joined by “and” are separate entries in the source; they are usually repeats but may differ in a detail not shown here. Identical values can stand only once. Like-named read-outs stand apart in the source and are kept apart here.

Key:
[1] = target: T1, chymotrypsin-like (CT-L) activity of purified 20S rabbit proteasome (Oryctolagus cuniculus, UniProt G1T4Q9); assay: Proteolytic activity of purified 20S proteasome, fluorogenic substrate Suc-Leu-Leu-Val-Tyr-AMC; format: biochemical
T1 sequence (G1T4Q9 1-263): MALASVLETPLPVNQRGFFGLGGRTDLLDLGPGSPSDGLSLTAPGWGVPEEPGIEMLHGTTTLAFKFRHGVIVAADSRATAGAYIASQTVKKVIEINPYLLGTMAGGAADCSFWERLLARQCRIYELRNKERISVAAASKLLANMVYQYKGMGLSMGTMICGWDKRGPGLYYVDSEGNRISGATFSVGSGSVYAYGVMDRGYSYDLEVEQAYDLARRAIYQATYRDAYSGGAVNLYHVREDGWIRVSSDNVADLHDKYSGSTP
Experimental: After incubation, production of hydrolyzed 7-amido-4-methyl-coumarin (AMC) groups was measured using a WALLAC Victor^2 1420 Multilabel Counter with an excitation filter of 355 nm and an emission filter of 460 nm (Perkin Elmer Life Sciences, Turku, Finland).
The inhibitory activity of the compounds was calculated based on vehicle control). This technique monitors the hydrolytic release of a coumarin species from a synthetic peptide substrate.
The assay was conducted by using a fluorogenic peptide as substrate to test synthesized compounds for inhibitory activity against the chymotrypsin-like activity of the purified rabbit 20S proteasome. Briefly, 70 ng of purified 20S proteasome was incubated with 20 μM Suc-Leu-Leu-Val-Tyr-AMC for 1 hour at 37° C. in 100 μl of assay buffer (50 mM Tris-HCl, pH 7.6) with or without inhibitors. After incubation, production of hydrolyzed 7-amido-4-methyl-coumarin (AMC) was measured using a WALLAC Victor2 1420 Multilabel Counter with an excitation filter of 355 nm and an emission filter of 460 nm (Perkin Elmer Life Sciences, Turku, Finland). The inhibitory activity of the compounds was calculated based on vehicle control.

[2] = tested on: MCF-7 breast cancer cells; assay: MTT metabolism assay; format: cell-based, human; settings: Homo sapiens
Experimental: (§1) Cells were plated in 96-well plates in 100 μl medium and allowed to attach overnight. […] Media was aspirated after 24 or 72 hours and replaced with 100 μl complete media containing 1 mg/ml MTT and incubated for three hours at 37° C. in 5% CO2 humidified incubator. Media was then aspirated and DMSO was added. Cells were incubated for 10 min at room temperature while shaking, and the absorbance was determined at 540 nm using a μQuant spectrophotometric plate reader (Bio-TEK, Winooski, Vt.).
Cells were plated in 96-well plates in 100 μl medium and allowed to attach overnight. Cells were then incubated for 72 h with varying concentrations of PI-083, YG1-080, YG1-075, HL2-090-2, HL2-090-4, HL2-090-6, and HL2-090-9 or vehicle control (DMSO). Media was aspirated and replaced with 100 μl complete media containing 1 mg/ml MTT and incubated for three hours at 37° C. in 5% CO2 humidified incubator. Media was then aspirated and DMSO was added. Cells were incubated for 10 min at room temperature while shaking, and the absorbance was determined at 540 nm using a μQuant spectrophotometric plate reader (Bio-TEK, Winooski, Vt.).

A549 lung cancer cells = assay: MTT metabolism assay; format: cell-based; settings: Homo sapiens, mean ± SD of 3 to 5 experiments, read-out: IC50 for cell viability measured by MTT assay
Experimental: as §1

CaLu-1 lung cancer cells = assay: MTT metabolism assay; format: cell-based; settings: Homo sapiens, mean ± SD of 3 to 5 experiments, read-out: IC50 for cell viability measured by MTT assay
Experimental: as §1

[3] = tested on: DU-145 prostate cancer cells; assay: MTT metabolism assay; format: cell-based; settings: Homo sapiens, read-out: IC50 for cell viability measured by MTT assay
Experimental: as §1

[4] = tested on: HPDE6-C7 (C7) pancreatic epithelial cells; assay: MTT metabolism assay; format: cell-based; settings: Homo sapiens, HPDE6c7, mean ± SD of 3 to 5 experiments, read-out: IC50 for cell viability measured by MTT assay
Experimental: as §1

[5] = tested on: HPDE6-C7-Kras (C7-Kras) pancreatic cancer cells; assay: MTT metabolism assay; format: cell-based; settings: Homo sapiens, Pancreatic cancer cell, mean ± SD of 3 to 5 experiments, read-out: IC50 for cell viability measured by MTT assay
Experimental: as §1

[6] = tested on: LNCaP prostate cancer cells; assay: MTT metabolism assay; format: cell-based; settings: Homo sapiens, mean ± SD of 3 to 5 experiments, read-out: IC50 for cell viability measured by MTT assay
Experimental: as §1

[7] = tested on: MCF-10A breast epithelial cells; assay: MTT metabolism assay; format: cell-based; settings: Homo sapiens, mean ± SD of 3 to 5 experiments, read-out: IC50 for cell viability measured by MTT assay
Experimental: as §1

[8] = tested on: RPMI-8226 multiple myeloma cells; assay: MTT metabolism assay; format: cell-based; settings: Homo sapiens, mean ± SD of 3 to 5 experiments, read-out: IC50 for cell viability measured by MTT assay
Experimental: as §1

[9] = tested on: T80 ovarian epithelial cells; assay: MTT metabolism assay; format: cell-based; settings: Homo sapiens, Epithelial cell, mean ± SD of 3 to 5 experiments, read-out: IC50 for cell viability measured by MTT assay
Experimental: as §1

[10] = tested on: U266 multiple myeloma cells; assay: MTT metabolism assay; format: cell-based; settings: Homo sapiens, U-266, mean ± SD of 3 to 5 experiments, read-out: IC50 for cell viability measured by MTT assay
Experimental: as §1

[11] = tested on: T80-Hras ovarian cancer cells; assay: MTT metabolism assay; format: cell-based; settings: Homo sapiens, mean ± SD of 3 to 5 experiments, read-out: IC50 for cell viability measured by MTT assay
[12] = tested on: primary multiple myeloma cells isolated from patients' bone marrow; assay: Viability of primary multiple myeloma cells (MTT assay); format: cell-based, human
Experimental: MM patients' bone marrow samples were collected from Liquid Tissue Bank facility. Freshly isolated bone marrow samples were fractionated by Ficoll-Paque (Pharmacia Biotech, Piscataway, N.J.) sedimentation. The mononuclear cellular layer was then resuspended in RPMI-1640 containing 10% heat-inactivated fetal bovine serum, 10 mM HEPES (pH 7.4), sodium pyruvate, L-glutamine, and 1% penicillin-streptomycin.
Cells were plated in 96-well plates in 100 μl medium and allowed to attach overnight. […] […] Media was then aspirated and DMSO was added. Cells were incubated for 10 min at room temperature while shaking, and the absorbance was determined at 540 nm using a μQuant spectrophotometric plate reader (Bio-TEK, Winooski, Vt.).

[13] = tested on: MCF-7 breast cancer xenografts; assay: Antitumor study of human tumor xenografts in nude mice (MCF-7); format: in vivo; settings: 1 mpk i.p. 2× weekly; for average tumor size of MCF-7 derived xenografts: start at about 200 mm^3
Experimental: (§2) Nude mice (Charles River Laboratories, Wilmington, Mass.) were maintained and treated in accordance with the Institutional Animal Care and Use Committee procedures and guidelines. Seven days before inoculation with MCF-7 cells, the animals were fully anesthetized for subcutaneous implantation of estradiol pellets (0.25 mg per pellet, 60-day release; Innovative Research of America, Sarasota, Fla.) on the dorsal surface of mice. Exponentially growing MCF-7 and A549 cells were harvested via trypsinization, pelleted at 300 g for 5 minutes, resuspended in sterile PBS (Invitrogen) at 10^7 cells per 100 μl, and injected into each flank of mice. The tumor xenografts were monitored with an electronic caliper every other day for 16 days. Tumor volume was calculated using the formula V=W^2L, where width is the largest diameter and length is the smallest diameter. When the tumors reached ˜200 mm^3, the animals were randomized and treatment schedules were implemented. […] 2 hours after the last injections animals were sacrificed via CO2 inhalation, and then tumors and livers were harvested and snap frozen in liquid N2.

[14] = tested on: A549 lung cancer xenografts; assay: Antitumor study of human tumor xenografts in nude mice (A549); format: in vivo; settings: 1 mpk i.p. 2× weekly; for average tumor size of A549-derived xenografts: start at about 200 mm^3
Experimental: as §2

[15] = target: T2, tumor T-L activity (A549 tumors) (Homo sapiens, UniProt Q99436); assay: Proteasome activity in A549 tumor lysates after in vivo treatment; set-up: species or system nude mice; settings: mouse, ip; A549 tumors extracted 2 hours after last i.p. injection (1 mpk), vs DMSO-treated controls
T2 construct: from tissue; host or cells: A549 human lung tumour xenografts grown in nude mice
Experimental: To determine proteasome activity in whole cell extracts from cultured cells (5 μg) or tumor and liver tissue extracts (30 μg) from nude mice, the same assay was used except that the buffer was changed to 20 mM HEPES, 0.5 mM EDTA, pH 8.0.
Whole cell extracts were prepared as follows: Cells were harvested, washed with PBS twice, and homogenized in a lysis buffer (50 mM Tris-HCl, pH 8.0, 5 mM EDTA, 150 mM NaCl, 0.5% NP-40) for 30 min at 4° C. Cell extracts from tumors and livers of nude mice were prepared in 50 mM HEPES, 0.5 mM EDTA, pH 8.0. Cell lysates were centrifuged at 12,000 g for 15 min, and the supernatants were collected as whole cell extracts.
Nude mice (Charles River Laboratories, Wilmington, Mass.) were maintained and treated in accordance with the Institutional Animal Care and Use Committee procedures and guidelines. […] Exponentially growing MCF-7 and A549 cells were harvested via trypsinization, pelleted at 300 g for 5 minutes, resuspended in sterile PBS (Invitrogen) at 10^7 cells per 100 μl, and injected into each flank of mice. The tumor xenografts were monitored with an electronic caliper every other day for 16 days. Tumor volume was calculated using the formula V=W^2L, where width is the largest diameter and length is the smallest diameter. When the tumors reached ˜200 mm^3, the animals were randomized and treatment schedules were implemented. […]

[16] = MCF7, 24 h, MCF-7, 24 h, mean ± SD of 3 to 5 experiments, read-out: IC50 for cell viability measured by MTT assay
[17] = MCF7, 72 h, MCF-7, 72 h, mean ± SD of 3 to 5 experiments (Table 3), read-out: IC50 for cell viability measured by MTT assay
[18] = read-out: Viability 24 h (IC50 values), primary MM cells, 24 h, Table 5: one value per patient, mean over patients

SMILES | IC50 [2, 16] | IC50 [2, 17] | IC50 (A549 lung cancer cells; A549, 24 h) | IC50 (A549 lung cancer cells; A549, 72 h) | IC50 (CaLu-1 lung cancer cells; CaLu-1, 24 h) | IC50 (CaLu-1 lung cancer cells; CaLu-1, 72 h) | IC50 ([3]; DU-145, 24 h) | IC50 ([3]; DU-145, 72 h) | IC50 ([4]; C7, 24 h) | IC50 ([4]; C7, 72 h) | IC50 ([5]; 24 h) | IC50 ([5]; 72 h) | IC50 ([6]; 24 h) | IC50 ([6]; 72 h) | IC50 ([7]; 24 h) | IC50 ([7]; 72 h) | IC50 ([8]; RPMI-8226, 24 h) | IC50 ([8]; RPMI-8226, 72 h) | IC50 ([9]; T80, 24 h) | IC50 ([9]; T80, 72 h) | also measured
CC(C)C[C@H](NC(=O)[C@H](Cc1ccccc1)NC(=O)c1cnccn1)B(O)O [Bortezomib, reference compound] | > 30 µM | 8.6 ± 1.41 µM | > 30 µM | 0.41 ± 0.07 µM | > 30 µM | 0.022 ± 0.002 µM | > 30 µM | 0.025 ± 0.002 µM | > 30 µM | 0.032 ± 0.001 µM | > 30 µM | 0.028 ± 0.006 µM | > 30 µM | 0.057 ± 0.004 µM | > 30 µM | 0.15 ± 0.074 µM | 0.049 ± 0.025 µM | 0.026 ± 0.003 µM | > 30 µM | 0.014 ± 0.001 µM | difference in potency between bortezomib and PI-083 ([1]; CT-L inhibition): 100 fold; IC50 ([10]; U266, 24 h): > 30 µM; IC50 ([11]; 24 h): > 30 µM; IC50 ([12]; primary MM cells, 48 h, Table 5: one value per patient, b176: mean over patients, listed as bortezomib, read-out: Viability 48 h (IC50 values)): 0.14 ± 0.08 µM; IC50 [12, 18]: 0.19 µM and 0.28 µM; IC50 ([12]; read-out: Viability 72 h (IC50 values), primary MM cells, 72 h, Table 5: one value per patient, b176: mean over patients, listed as bortezomib): 0.046 ± 0.008 µM; antitumor effect in MCF-7 xenografts, in words [13]: appeared to be ineffective in the nude mouse model; average tumor size of MCF-7 derived xenografts [13]: 1,448±145 mm^3; average tumor size of A549-derived xenografts [14]: 864±207 mm^3; inhibition at 1 mg/kg [15]: 0%
O=C1C(Cl)=C(Nc2ccc(S(=O)(=O)Nc3ccccn3)cc2)C(=O)c2ccccc21 [PI-083, 4-(3-chloro-1,4-dioxo-1,4-dihydronaphthalen-2-ylamino)-N-(pyridin-2-yl)benzenesulfonamide] | 4.5 ± 0.82 µM | 2.2 ± 1.1 µM | 41 ± 17 µM | 11 ± 6.7 µM | 7.3 ± 0.43 µM | 4.9 ± 1.2 µM | 8.6 ± 0.63 µM | 5 ± 0.72 µM | 5.1 ± 0.53 µM | 4.2 ± 1.6 µM | 2.4 ± 0.23 µM | 1.9 ± 0.2 µM | 14 ± 2.8 µM | 5.2 ± 1.1 µM | 17 ± 0.86 µM | 4.2 ± 2.1 µM | 7.4 ± 0.38 µM | 10 ± 4 µM | 2.7 ± 0.53 µM | 1.7 ± 0.39 µM | IC50 ([1]; PI-083 derivatives (Table 7, naphthoquinone library), purified rabbit 20S proteasome, read-out: IC50 (μM) Chymotrypsin-like activity): 1.2 ± 1 µM; IC50 ([1]; purified 20S rabbit proteasome, Table 4: means of 3 experiments ± standard error, read-out: IC50 for CT-L activity in vitro): 1 µM; IC50 ([2]; MCF7, 72 h, MCF-7, 72 h (Table 6), read-out: IC50 for cell viability measured by MTT assay in MCF-7 human breast cancer cells): 2.31 ± 0.1 µM; IC50 ([10]; U266, 24 h): 23 ± 1.7 µM; IC50 ([10]; U266, 72 h): 7 ± 1.5 µM; IC50 ([11]; 24 h): 1.5 ± 0.57 µM; IC50 ([11]; 72 h): 2.1 ± 0.4 µM; IC50 ([12]; primary MM cells, 48 h, Table 5: one value per patient, b176: mean over patients, read-out: Viability 48 h (IC50 values)): 1.79 µM and 2.6 µM and 3.6 µM and 0.9 µM and 1.5 µM; IC50 [12, 18]: > 10 µM and 2.2 µM and 3.4 µM and 1.8 µM and 2 µM; IC50 ([12]; read-out: Viability 72 h (IC50 values), primary MM cells, 72 h, Table 5: one value per patient, b176: mean over patients): 1.6 µM and 2.2 µM and 2.6 µM and 1.3 µM and 1.8 µM and 0.35 µM; tumor growth inhibition, MCF-7 xenografts [13]: 84%; average tumor size of MCF-7 derived xenografts [13]: about 396±137 mm^3; tumor growth inhibition, A549 xenografts [14]: 54%; average tumor size of A549-derived xenografts [14]: about 511±134 mm^3; inhibition at 1 mg/kg [15]: 12%
